{
  "source": "PubChem BioAssay AID1963981",
  "about": "(Molecular Pharmacology Branch, DTP, NCI, 2024);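 note: spheroids exposed to agents for seven days before the viability read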",
  "test_system": "354836-022-R-J1-PDC multicell spheroid viability",
  "assay": "Anticancer human tumor 354836-022-R-J1-PDC patient-derived head and neck squamous cell carcinoma cell line growth inhibition [PI3K]",
  "conditions": "for IC50: curve of first compound; for viability, T/C: stronger effect = lower value",
  "procedure,_shortened": "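Tumor cells were combined with HUVEC and MSCs into spheroids, then dosed with PI3K-inhibitor combinations over half-log ranges capped near clinical Cmax or 10 microM.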",
  "key": {"[1]": {"conditions": "second compound 0.00316 µM, first compound 0.00316 µM"}, "[2]": {"conditions": "second compound 0.00316 µM, first compound 0.01 µM"}, "[3]": {"conditions": "second compound 0.00316 µM, first compound 0.0316 µM"}, "[4]": {"conditions": "second compound 0.00316 µM, first compound 0.1 µM"}, "[5]": {"conditions": "second compound 0.01 µM, first compound 0.00316 µM"}, "[6]": {"conditions": "second compound 0.01 µM, first compound 0.01 µM"}, "[7]": {"conditions": "second compound 0.01 µM, first compound 0.0316 µM"}, "[8]": {"conditions": "second compound 0.01 µM, first compound 0.1 µM"}, "[9]": {"conditions": "second compound 0.0316 µM, first compound 0.00316 µM"}, "[10]": {"conditions": "second compound 0.0316 µM, first compound 0.01 µM"}, "[11]": {"conditions": "second compound 0.0316 µM, first compound 0.0316 µM"}, "[12]": {"conditions": "second compound 0.0316 µM, first compound 0.1 µM"}, "[13]": {"conditions": "second compound 0.1 µM, first compound 0.00316 µM"}, "[14]": {"conditions": "second compound 0.1 µM, first compound 0.01 µM"}, "[15]": {"conditions": "second compound 0.1 µM, first compound 0.0316 µM"}, "[16]": {"conditions": "second compound 0.1 µM, first compound 0.1 µM"}, "[17]": {"conditions": "second compound 0.316 µM, first compound 0.00316 µM"}, "[18]": {"conditions": "second compound 0.316 µM, first compound 0.01 µM"}, "[19]": {"conditions": "second compound 0.316 µM, first compound 0.0316 µM"}, "[20]": {"conditions": "second compound 0.316 µM, first compound 0.1 µM"}, "[21]": {"conditions": "second compound 1 µM, first compound 0.00316 µM"}, "[22]": {"conditions": "second compound 1 µM, first compound 0.01 µM"}, "[23]": {"conditions": "second compound 1 µM, first compound 0.0316 µM"}, "[24]": {"conditions": "second compound 1 µM, first compound 0.1 µM"}},
  "data": [
    {"smiles": "CCN1CCN(Cc2ccc(Nc3ncc(F)c(-c4cc(F)c5nc(C)n(C(C)C)c5c4)n3)nc2)CC1", "note": "+ COc1c(OCCCN2CCOCC2)ccc2c3n(c(=NC(=O)c4cnc(N)nc4)nc12)CCN3", "values": [
      {"measurement": "IC50", "setting": "second compound 0.00316 µM", "value": 0.656, "unit": "µM"},
      {"measurement": "IC50", "setting": "second compound 0.01 µM", "value": 0.642, "unit": "µM"},
      {"measurement": "IC50", "setting": "second compound 0.0316 µM", "value": 0.342, "unit": "µM"},
      {"measurement": "IC50", "setting": "second compound 0.1 µM", "value": "< 0.00316", "unit": "µM"},
      {"measurement": "IC50", "setting": "second compound 0.316 µM", "value": "< 0.00316", "unit": "µM"},
      {"measurement": "IC50", "setting": "second compound 1 µM", "value": "< 0.00316", "unit": "µM"},
      {"measurement": "viability, T/C", "setting": "[1]", "value": 97.2, "unit": "%"},
      {"measurement": "viability, T/C", "setting": "[2]", "value": 86.5, "unit": "%"},
      {"measurement": "viability, T/C", "setting": "[3]", "value": 98.3, "unit": "%"},
      {"measurement": "viability, T/C", "setting": "[4]", "value": 99.3, "unit": "%"},
      {"measurement": "viability, T/C", "setting": "second compound 0.00316 µM, first compound 0.316 µM", "value": 71.5, "unit": "%"},
      {"measurement": "viability, T/C", "setting": "second compound 0.00316 µM, first compound 1 µM", "value": 37.6, "unit": "%"},
      {"measurement": "viability, T/C", "setting": "[5]", "value": 98, "unit": "%"},
      {"measurement": "viability, T/C", "setting": "[6]", "value": 101, "unit": "%"},
      {"measurement": "viability, T/C", "setting": "[7]", "value": 96, "unit": "%"},
      {"measurement": "viability, T/C", "setting": "[8]", "value": 81.1, "unit": "%"},
      {"measurement": "viability, T/C", "setting": "second compound 0.01 µM, first compound 0.316 µM", "value": 83.5, "unit": "%"},
      {"measurement": "viability, T/C", "setting": "second compound 0.01 µM, first compound 1 µM", "value": 31.7, "unit": "%"},
      {"measurement": "viability, T/C", "setting": "[9]", "value": 78.5, "unit": "%"},
      {"measurement": "viability, T/C", "setting": "[10]", "value": 74.4, "unit": "%"},
      {"measurement": "viability, T/C", "setting": "[11]", "value": 72.6, "unit": "%"},
      {"measurement": "viability, T/C", "setting": "[12]", "value": 65.2, "unit": "%"},
      {"measurement": "viability, T/C", "setting": "second compound 0.0316 µM, first compound 0.316 µM", "value": 53.5, "unit": "%"},
      {"measurement": "viability, T/C", "setting": "second compound 0.0316 µM, first compound 1 µM", "value": 20.9, "unit": "%"},
      {"measurement": "viability, T/C", "setting": "[13]", "value": 46.6, "unit": "%"},
      {"measurement": "viability, T/C", "setting": "[14]", "value": 41.8, "unit": "%"},
      {"measurement": "viability, T/C", "setting": "[15]", "value": 46.5, "unit": "%"},
      {"measurement": "viability, T/C", "setting": "[16]", "value": 36.6, "unit": "%"},
      {"measurement": "viability, T/C", "setting": "second compound 0.1 µM, first compound 0.316 µM", "value": 30.4, "unit": "%"},
      {"measurement": "viability, T/C", "setting": "second compound 0.1 µM, first compound 1 µM", "value": 6.41, "unit": "%"},
      {"measurement": "viability, T/C", "setting": "[17]", "value": 11.8, "unit": "%"},
      {"measurement": "viability, T/C", "setting": "[18]", "value": 10.4, "unit": "%"},
      {"measurement": "viability, T/C", "setting": "[19]", "value": 12.9, "unit": "%"},
      {"measurement": "viability, T/C", "setting": "[20]", "value": 8.98, "unit": "%"},
      {"measurement": "viability, T/C", "setting": "second compound 0.316 µM, first compound 0.316 µM", "value": 5.99, "unit": "%"},
      {"measurement": "viability, T/C", "setting": "second compound 0.316 µM, first compound 1 µM", "value": 2.69, "unit": "%"},
      {"measurement": "viability, T/C", "setting": "[21]", "value": 1.43, "unit": "%"},
      {"measurement": "viability, T/C", "setting": "[22]", "value": 1.38, "unit": "%"},
      {"measurement": "viability, T/C", "setting": "[23]", "value": 1.41, "unit": "%"},
      {"measurement": "viability, T/C", "setting": "[24]", "value": 1.78, "unit": "%"},
      {"measurement": "viability, T/C", "setting": "second compound 1 µM, first compound 0.316 µM", "value": 1.38, "unit": "%"},
      {"measurement": "viability, T/C", "setting": "second compound 1 µM, first compound 1 µM", "value": 1.22, "unit": "%"}
    ]},
    {"smiles": "Cn1ncnc1[C@H]1c2n[nH]c(=O)c3cc(F)cc(c23)N[C@@H]1c1ccc(F)cc1", "note": "+ COc1c(OCCCN2CCOCC2)ccc2c3n(c(=NC(=O)c4cnc(N)nc4)nc12)CCN3", "values": [
      {"measurement": "IC50", "setting": "second compound 0.00316 µM", "value": "> 0.1", "unit": "µM"},
      {"measurement": "IC50", "setting": "second compound 0.01 µM", "value": "> 0.1", "unit": "µM"},
      {"measurement": "IC50", "setting": "second compound 0.0316 µM", "value": "> 0.1", "unit": "µM"},
      {"measurement": "IC50", "setting": "second compound 0.1 µM", "value": 0.0149, "unit": "µM"},
      {"measurement": "IC50", "setting": "second compound 0.316 µM", "value": "< 0.000316", "unit": "µM"},
      {"measurement": "IC50", "setting": "second compound 1 µM", "value": "< 0.000316", "unit": "µM"},
      {"measurement": "viability, T/C", "setting": "second compound 0.00316 µM, first compound 0.000316 µM", "value": 98.6, "unit": "%"},
      {"measurement": "viability, T/C", "setting": "second compound 0.00316 µM, first compound 0.001 µM", "value": 102, "unit": "%"},
      {"measurement": "viability, T/C", "setting": "[1]", "value": 95.6, "unit": "%"},
      {"measurement": "viability, T/C", "setting": "[2]", "value": 101, "unit": "%"},
      {"measurement": "viability, T/C", "setting": "[3]", "value": 98.2, "unit": "%"},
      {"measurement": "viability, T/C", "setting": "[4]", "value": 88.5, "unit": "%"},
      {"measurement": "viability, T/C", "setting": "second compound 0.01 µM, first compound 0.000316 µM", "value": 93.8, "unit": "%"},
      {"measurement": "viability, T/C", "setting": "second compound 0.01 µM, first compound 0.001 µM", "value": 103, "unit": "%"},
      {"measurement": "viability, T/C", "setting": "[5]", "value": 90.5, "unit": "%"},
      {"measurement": "viability, T/C", "setting": "[6]", "value": 93.1, "unit": "%"},
      {"measurement": "viability, T/C", "setting": "[7]", "value": 95.3, "unit": "%"},
      {"measurement": "viability, T/C", "setting": "[8]", "value": 76.2, "unit": "%"},
      {"measurement": "viability, T/C", "setting": "second compound 0.0316 µM, first compound 0.000316 µM", "value": 76, "unit": "%"},
      {"measurement": "viability, T/C", "setting": "second compound 0.0316 µM, first compound 0.001 µM", "value": 77.7, "unit": "%"},
      {"measurement": "viability, T/C", "setting": "[9]", "value": 88, "unit": "%"},
      {"measurement": "viability, T/C", "setting": "[10]", "value": 83.4, "unit": "%"},
      {"measurement": "viability, T/C", "setting": "[11]", "value": 83.1, "unit": "%"},
      {"measurement": "viability, T/C", "setting": "[12]", "value": 69.8, "unit": "%"},
      {"measurement": "viability, T/C", "setting": "second compound 0.1 µM, first compound 0.000316 µM", "value": 50, "unit": "%"},
      {"measurement": "viability, T/C", "setting": "second compound 0.1 µM, first compound 0.001 µM", "value": 50.7, "unit": "%"},
      {"measurement": "viability, T/C", "setting": "[13]", "value": 52, "unit": "%"},
      {"measurement": "viability, T/C", "setting": "[14]", "value": 57.5, "unit": "%"},
      {"measurement": "viability, T/C", "setting": "[15]", "value": 57.8, "unit": "%"},
      {"measurement": "viability, T/C", "setting": "[16]", "value": 37, "unit": "%"},
      {"measurement": "viability, T/C", "setting": "second compound 0.316 µM, first compound 0.000316 µM", "value": 15.2, "unit": "%"},
      {"measurement": "viability, T/C", "setting": "second compound 0.316 µM, first compound 0.001 µM", "value": 16.3, "unit": "%"},
      {"measurement": "viability, T/C", "setting": "[17]", "value": 14.5, "unit": "%"},
      {"measurement": "viability, T/C", "setting": "[18]", "value": 13.9, "unit": "%"},
      {"measurement": "viability, T/C", "setting": "[19]", "value": 13.5, "unit": "%"},
      {"measurement": "viability, T/C", "setting": "[20]", "value": 7.08, "unit": "%"},
      {"measurement": "viability, T/C", "setting": "second compound 1 µM, first compound 0.000316 µM", "value": 2.45, "unit": "%"},
      {"measurement": "viability, T/C", "setting": "second compound 1 µM, first compound 0.001 µM", "value": 1.53, "unit": "%"},
      {"measurement": "viability, T/C", "setting": "[21]", "value": 1.71, "unit": "%"},
      {"measurement": "viability, T/C", "setting": "[22]", "value": 2.18, "unit": "%"},
      {"measurement": "viability, T/C", "setting": "[23]", "value": 2.36, "unit": "%"},
      {"measurement": "viability, T/C", "setting": "[24]", "value": 1.28, "unit": "%"}
    ]}
  ]
}
